Results reported in patent publication US20250333388A1, “OXADIAZOLONE COMPOUNDS AND HERBICIDAL COMPOSITIONS AND USES THEREOF” (SHANDONG BINNONG TECHNOLOGY CO., LTD., priority 2023, published 2025).

Key:
Type in all cases: in vivo
rice = assay: Safety testing on rice, stem and leaf spray in greenhouse; conditions: for inhibitory effect on rice (crop safety): at different doses, as compared to Control compounds A, B, and C, summary of Table 6; for Rice (%) safety (crop damage): stem and leaf spray
Protocol: (§1) The seeds of corn and rice were sown into nutrient soil in plastic cups, respectively, then covered with soil, compacted, watered, and further cultivated in a greenhouse by conventional methods. The stems and leaves of the crops were sprayed when the crops reached the 2- to 3-leaf stage. The test compounds of the present application were dissolved in acetone, followed by addition of Tween 80. The solution was then diluted with a certain amount of water to a certain solubility, and sprayed onto the plants using a spray tower. The test was repeated three times. After drying naturally in the shade, the plants were put in a greenhouse and managed according to conventional methods. The growth and development of corn and rice were observed, and the safety of the test agent on corn and rice was checked visually periodically. A safety grading standard was represented by 0-100%, with “O” representing no damage to crops, and “100%” representing complete killing or severe inhibition of crops.

corn = assay: Safety testing on corn, stem and leaf spray in greenhouse; conditions: for inhibitory effect on corn (crop safety): at different doses, as compared to Control compounds A, B, and C, summary of Table 6; for Corn (%) safety (crop damage): stem and leaf spray
Protocol: as §1

crabgrass = assay: Test of herbicidal activity, post-seedling stem and leaf spray in greenhouse, crabgrass; conditions: for herbicidal activity against crabgrass compared with Control compounds A, B and C: at different doses, summary of Table 5; for Crabgrass (%) control effect: post-seedling stem and leaf spray
Protocol: (§2) Seeds of broadleaf weeds (abutilon, Solanum nigrum) or gramineous weeds (crabgrass, barnyard grass) were sown into nutrient soil in plastic cups, respectively, and then covered with soil, compacted, watered, and further cultivated in a greenhouse by conventional methods. The stems and leaves of the weeds were sprayed when the weeds reached the 2- to 3-leaf stage. The test compounds of the present application were dissolved in acetone respectively, followed by addition of Tween 80. The solution was diluted with a certain amount of water to a certain solubility, and then sprayed onto the plants using a spray tower. The test was repeated three times. After drying naturally in the shade, the plants were put in a greenhouse and managed according to conventional methods. The growth and development of weeds were observed, and the control effect of the test agent on weeds was checked visually periodically, which was expressed by 0-100%, with “0” representing no control effect, and “100%” representing complete killing or severe inhibition.

abutilon = assay: Test of herbicidal activity, post-seedling stem and leaf spray in greenhouse, abutilon; conditions: for herbicidal activity against abutilon compared with Control compounds A, B and C: at different doses, summary of Table 5; for Abutilon (%) control effect: post-seedling stem and leaf spray
Protocol: as §2

barnyard grass = assay: Test of herbicidal activity, post-seedling stem and leaf spray in greenhouse, barnyard grass; conditions: for herbicidal activity against barnyard grass compared with Control compounds A, B and C: at different doses, summary of Table 5; for Barnyard grass (%) control effect: post-seedling stem and leaf spray
Protocol: as §2

Solanum nigrum = assay: Test of herbicidal activity, post-seedling stem and leaf spray in greenhouse, Solanum nigrum; conditions: for herbicidal activity against Solamum nigrum compared with Control compounds A, B and C: at different doses, summary of Table 5; for Solanum nigrum (%) control effect: post-seedling stem and leaf spray
Protocol: as §2

[1] = dose 300 g a.i/ha, 0 = no damage to crops, 100% = complete killing or severe inhibition
[2] = dose 300 g a.i/ha, 0 = no control effect, 100% = complete killing or severe inhibition

SMILES	Rice (%) safety (crop damage) (rice; dose 37.5 g a.i/ha) [%]	Rice (%) safety (crop damage) (rice; dose 75 g a.i/ha) [%]	Rice (%) safety (crop damage) (rice; dose 150 g a.i/ha) [%]	Rice (%) safety (crop damage) (rice; dose 300 g a.i/ha) [%]	Corn (%) safety (crop damage) (corn; dose 37.5 g a.i/ha) [%]	Corn (%) safety (crop damage) (corn; dose 75 g a.i/ha) [%]	Corn (%) safety (crop damage) (corn; dose 150 g a.i/ha) [%]	Corn (%) safety (crop damage) (corn; [1]) [%]	Crabgrass (%) control effect (crabgrass; dose 37.5 g a.i/ha) [%]	Crabgrass (%) control effect (crabgrass; dose 75 g a.i/ha) [%]	Crabgrass (%) control effect (crabgrass; dose 150 g a.i/ha) [%]	Crabgrass (%) control effect (crabgrass; dose 300 g a.i/ha) [%]	Abutilon (%) control effect (abutilon; dose 37.5 g a.i/ha) [%]	Abutilon (%) control effect (abutilon; dose 75 g a.i/ha) [%]	Abutilon (%) control effect (abutilon; dose 150 g a.i/ha) [%]	Abutilon (%) control effect (abutilon; [2]) [%]	Barnyard grass (%) control effect (barnyard grass; dose 37.5 g a.i/ha) [%]	Barnyard grass (%) control effect (barnyard grass; dose 75 g a.i/ha) [%]	Barnyard grass (%) control effect (barnyard grass; dose 150 g a.i/ha) [%]	Barnyard grass (%) control effect (barnyard grass; dose 300 g a.i/ha) [%]	also measured
Cc1nn(Cc2c(S(=O)(=O)C(C)C)ccc(C(=O)c3c(C)nn(C)c3O)c2Cl)c(=O)o1 [Compound 100, 1,3-dimethyl-4-{2-chloro-3-[(5-methyl-2-oxo-1,3,4-oxadiazol-3 (2H)yl)methyl]-4-isopropylsulfonylbenzoyl}-5-hydroxypyrazole]	0	0	0	2	0	0	0	0													inhibitory effect on rice (crop safety) (rice): no significant inhibitory effect; inhibitory effect on corn (crop safety) (corn): no significant inhibitory effect
Cc1nn(Cc2c(S(C)(=O)=O)ccc(C(=O)c3c(C4CC4)nn(C)c3OC(=O)c3c(C)nn(C)c3Cl)c2Cl)c(=O)o1 [Compound 201]	0	0	0	2	0	0	0	0	45	65	80	90	55	80	92	98	55	75	95	100	herbicidal activity against crabgrass compared with Control compounds A, B and C (crabgrass): better herbicidal activities; herbicidal activity against abutilon compared with Control compounds A, B and C (abutilon): better herbicidal activities; inhibitory effect on rice (crop safety) (rice): no significant inhibitory effect; herbicidal activity against barnyard grass compared with Control compounds A, B and C (barnyard grass): better herbicidal activities; herbicidal activity against Solamum nigrum compared with Control compounds A, B and C (Solanum nigrum): better herbicidal activities; Solanum nigrum (%) control effect (Solanum nigrum; dose 37.5 g a.i/ha): 55%; Solanum nigrum (%) control effect (Solanum nigrum; dose 75 g a.i/ha): 75%; Solanum nigrum (%) control effect (Solanum nigrum; dose 150 g a.i/ha): 95%; Solanum nigrum (%) control effect (Solanum nigrum; dose 300 g a.i/ha): 100%; inhibitory effect on corn (crop safety) (corn): no significant inhibitory effect
CCS(=O)(=O)c1ccc(C(=O)c2c(C)nn(C)c2OC(=O)c2cc(C)nn2C)c(Cl)c1Cn1nc(C)oc1=O [Compound 224]	0	0	2	5	0	0	0	2	45	65	80	84	55	80	90	92	50	70	85	88	herbicidal activity against crabgrass compared with Control compounds A, B and C (crabgrass): better herbicidal activities; herbicidal activity against abutilon compared with Control compounds A, B and C (abutilon): better herbicidal activities; inhibitory effect on rice (crop safety) (rice): no significant inhibitory effect; herbicidal activity against barnyard grass compared with Control compounds A, B and C (barnyard grass): better herbicidal activities; herbicidal activity against Solamum nigrum compared with Control compounds A, B and C (Solanum nigrum): better herbicidal activities; Solanum nigrum (%) control effect (Solanum nigrum; dose 37.5 g a.i/ha): 50%; Solanum nigrum (%) control effect (Solanum nigrum; dose 75 g a.i/ha): 70%; Solanum nigrum (%) control effect (Solanum nigrum; dose 150 g a.i/ha): 90%; Solanum nigrum (%) control effect (Solanum nigrum; dose 300 g a.i/ha): 93%; inhibitory effect on corn (crop safety) (corn): no significant inhibitory effect
CS(=O)(=O)c1ccc(C(=O)C2C(=O)CCCC2=O)c(Cl)c1 [Control compound A, reference compound]	10	25	45	60	0	0	0	5	5	25	45	50	50	80	98	100	10	30	50	60	Solanum nigrum (%) control effect (Solanum nigrum; dose 37.5 g a.i/ha): 50%; Solanum nigrum (%) control effect (Solanum nigrum; dose 75 g a.i/ha): 70%; Solanum nigrum (%) control effect (Solanum nigrum; dose 150 g a.i/ha): 90%; Solanum nigrum (%) control effect (Solanum nigrum; dose 300 g a.i/ha): 95%
Cc1nn(C)c(O)c1C(=O)c1ccc(S(C)(=O)=O)cc1Cl [Control compound B, reference compound]	10	20	40	55	0	0	0	2	5	15	40	45	45	55	75	85	10	25	45	55	Solanum nigrum (%) control effect (Solanum nigrum; dose 37.5 g a.i/ha): 40%; Solanum nigrum (%) control effect (Solanum nigrum; dose 75 g a.i/ha): 50%; Solanum nigrum (%) control effect (Solanum nigrum; dose 150 g a.i/ha): 65%; Solanum nigrum (%) control effect (Solanum nigrum; dose 300 g a.i/ha): 70%
